Assay results published in the supplement of paper PMC9663587.

Columns and labels:
Assay in all cases: area over the GR curve, 72 h; higher = more effect;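 further: Dye Drop or Deep Dye Drop imaging of viable cells in 384-well plates (Hoechst nuclei, LIVE/DEAD dye), nine half-log doses, GR normalized to DMSO controls and time-zero plates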
PDX1258 = test system: PDX1258
HTERT_HME1 = test system: HTERT_HME1
PDX1328 = test system: PDX1328
CAL851 = test system: CAL851
HCC1395 = test system: HCC1395
HCC1569 = test system: HCC1569
HCC1419 = test system: HCC1419
HCC202 = test system: HCC202
MCF7 = test system: MCF7
SUM229PE = test system: SUM229PE
HCC1143 = test system: HCC1143

Row | SMILES | area over the GR curve (PDX1258) [GR] | area over the GR curve (HTERT_HME1) [GR] | area over the GR curve (PDX1328) [GR] | area over the GR curve (CAL851) [GR] | area over the GR curve (HCC1395) [GR] | area over the GR curve (HCC1569) [GR] | area over the GR curve (HCC1419) [GR] | area over the GR curve (HCC202) [GR] | area over the GR curve (MCF7) [GR] | area over the GR curve (SUM229PE) [GR] | area over the GR curve (HCC1143) [GR]
1 | COc1ccc2c(c1)[C@]1(C[C@H]1c1ccc3c(/C=C/c4ccc(CN5C[C@@H](C)O[C@@H](C)C5)cc4)n[nH]c3c1)C(=O)N2 | 0.676 | 0.734 | 0.553 | 0.761 | 0.709 | 0.435 | 0.425 | 0.299 | 0.906 | 0.675 | 0.534
2 | COc1cccc(OCCCN)c1-c1cc(Nc2cnc(C#N)cn2)n[nH]1 | 0.868 | 0.596 | 0.442 | 0.608 | 0.832 | 0.355 | 0.413 | 0.332 | 0.794 | 0.342 | 0.619
3 | CC(=O)Nc1cccc(-n2c(=O)n(C3CC3)c(=O)c3c(Nc4ccc(I)cc4F)n(C)c(=O)c(C)c32)c1 (max 1 µM) | 0.0351 | 0.434 | 0.166 | 0.41 | 0.185 | 0.135 | 0.285 | 0.237 | 0.277 | 0.472 | 0.538
4 | CCc1cnn2c(NCc3ccc[n+]([O-])c3)cc(N3CCCC[C@H]3CCO)nc12 (max 1 µM) | 0.685 | 0.552 | 0.656 | 0.686 | 0.644 | 0.541 | 0.443 | 0.406 | 0.644 | 0.532 | 0.545
5 | CC(=O)c1c(C)c2cnc(Nc3ccc(N4CCNCC4)cn3)nc2n(C2CCCC2)c1=O (max 3.162 µM) | -0.0777 | 0.259 | 0.252 | -0.0843 | 0.274 | 0.0095 | 0.208 | 0.135 | 0.346 | 0.223 | 0.255
6 | CCc1cncnc1N1CCN(Cc2nc3ccc(C(F)(F)F)cc3[nH]2)CC1 (max 10 µM) | -0.0033 | 0.117 | 0.0319 | -0.0315 | 0.0037 | 0.0337 | 0.112 | 0.0342 | 0.0548 | 0.0479 | 0.0639
7 | CCCCOc1c(C(=O)c2c(F)cc(C)cc2F)c[nH]c2nncc1-2 (max 10 µM) | 1.05 | 0.862 | 0.142 | 0.672 | 0.807 | 0.657 | 0.301 | 0.359 | 0.697 | 0.662 | 0.837
8 | CCN1CCN(Cc2ccc(Nc3ncc(F)c(-c4cc(F)c5nc(C)n(C(C)C)c5c4)n3)nc2)CC1 (max 10 µM) | 0.329 | 0.428 | 0.676 | 0.228 | 0.562 | 0.132 | 0.433 | 0.277 | 0.702 | 0.383 | 0.541
9 | CNc1nc(-c2ccc3c(N)n[nH]c3c2)cc(N2C[C@@H](C(=O)NC3CCCCC3)CC[C@H]2C)n1 (max 10 µM) | 0.011 | 0.128 | 0.136 | 0.201 | 0.187 | 0.114 | 0.245 | 0.365 | 0.256 | 0.0671 | 0.0906
10 | CO[C@@H](C)Cn1c(=O)n(C)c2cnc3ccc(-c4cncc(C(C)(C)O)c4)cc3c21 (max 10 µM) | 0.557 | 0.676 | 0.72 | 0.771 | 0.618 | 0.768 | 0.979 | 0.726 | 0.834 | 0.409 | 0.446
11 | Cc1nn(C)c(COc2ccc(N3CCN(S(=O)(=O)N(C)C)CC3)cc2)c1-c1cccc2c(CCCOc3cccc4ccccc34)c(C(=O)O)n(CCN3CCOCC3)c12 (max 10 µM) | -0.0034 | 0.339 | -0.0317 | 0.0108 | -0.0037 | -0.0353 | 0.0402 | -0.005 | -0.0002 | 0.0397 | 0.064
12 | CN(C)CC[C@H](CSc1ccccc1)Nc1ccc(S(=O)(=O)NC(=O)c2ccc(N3CCN(Cc4ccccc4-c4ccc(Cl)cc4)CC3)cc2)cc1[N+](=O)[O-] [ABT-737] (max 10 µM) | -0.0015 | 0.081 | 0.304 | -0.0516 | -0.0157 | 0.318 | -0.0276 | -0.0052 | 0.0119 | 0.0913 | 0.102
13 | C=CCn1c(=O)c2cnc(Nc3ccc(N4CCN(C)CC4)cc3)nc2n1-c1cccc(C(C)(C)O)n1 [AZD1775] (max 10 µM) | 0.73 | 0.441 | 0.806 | 0.491 | 0.886 | 0.825 | 0.238 | 0.579 | 0.692 | 0.756 | 0.355
14 | CNC(=O)c1cccc(-c2ccc3c(N4CCOC[C@@H]4C)nc(N4CCOC[C@@H]4C)nc3n2)c1 [AZD2014] (max 10 µM) | 0.41 | 0.601 | 0.706 | 0.637 | 0.582 | 0.625 | 0.942 | 0.698 | 0.854 | 0.484 | 0.422
15 | NC1(C(=O)N[C@@H](CCO)c2ccc(Cl)cc2)CCN(c2nc[nH]c3nccc2-3)CC1 [AZD5363] (max 10 µM) | 0.153 | 0.188 | 0.0959 | 0.106 | 0.5 | 0.433 | 0.189 | 0.236 | 0.212 | 0.234 | 0.0834
16 | C[C@@H]1COCCN1c1cc(C2([S@](C)(=N)=O)CC2)nc(-c2cc[nH]c3nccc2-3)n1 [AZD6738] (max 10 µM) | 0.0598 | -0.0027 | 0.172 | 0.071 | 0.194 | 0.053 | 0.0421 | 0.0023 | 0.179 | 0.0968 | 0.0282
17 | NC(=O)Nc1cc(-c2cccc(F)c2)sc1C(=O)N[C@H]1CCCNC1 [AZD7762] (max 10 µM) | 0.909 | 0.435 | 0.828 | 0.648 | 0.857 | 0.772 | 0.561 | 0.652 | 0.597 | 0.588 | 0.621
